pKi: −log10 of the molar value.
Experiments:
ERG-ETS/DNA complex = target: T1, ERG-ETS/DNA complex (Homo sapiens, UniProt P11308); assay: EMSA competition, purified ERG-ETS domain and dsDNA; format: binding; conditions: for Disruption of recombinant ERG-ETS/DNA complex formation: up to 8 mM
T1 construct: A pET28a plasmid encoding residues 307–400 of the ERG-ETS domain; His6 (cleaved yes); made in house; host or cells: E. coli BL21 (λDE3)
T1 sequence (P11308 307-400): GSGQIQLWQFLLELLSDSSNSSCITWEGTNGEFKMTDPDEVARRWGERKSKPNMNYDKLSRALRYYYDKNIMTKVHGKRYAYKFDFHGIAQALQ
Experimental: To prepare the probe for the gel shift assay, equal amounts (200 nM) of Alexa-488 fluorophore-labeled DNAs ([NT] and its complement) were mixed, heated to 95°C for 30 minutes, and then slowly cooled to 25°C in several hours. […] The gel was scanned with Typhoon 9200 Imager equipped with blue laser to excite at 490 nm and fluorescence was measured at 520 nm. The scanned image was analyzed with Image J [48]. […] The result of this initial study was used to set the molar ratio of ERG-ETS domain:DNA in subsequent competition assays with VPC-18005. […] The data were fit to the equation for competitive binding, fb,i = [ERG]/([ERG] + KD{1 + [VPC-18005]i/KI}), where KI is the inhibitor dissociation constant and the fraction bound, fb,i, was calculated the intensity of the bound DNA band at each titration point relative to that without added VPC-18005. A control experiment was carried out by titrating with equivalent quantities of DMSO.

PNT1B-ERG spheroids = assay: 3D spheroid invasion assay; format: cell-based, human; conditions: compared to vehicle control
Experimental: 3D Spheroid BME Cell Invasion Assay (Trevigen) was performed as per manufacturer's instructions. […] Spheroids were then incubated at 37°C for 3 to 7 days, and photographed using Zeiss AxioObserver Z1 microscope in each well on the day of invasion mix addition and every two days following. Spheroids were retreated with 50 μL of vehicle control or compound after 72 hr.

PC3 cells = assay: MTS cell viability assay, PC3; format: cell-based, human; conditions: 72 h
Experimental: (§1) 3-(4,5-dimethylthiazol-2-yl)-5-(3-carboxymethoxyp henyl)-2-(4-sulfophenyl)-2H-tetrazolium, inner salt (MTS). Cells were seeded at a density of 3000 cells per well (except VCaP at 20,000/well) in 100 μL of appropriate media in 96 well culture dishes. Twenty four hours later, 100 μL of medium containing vehicle control or compounds. Each treatment was prepared in triplicate. After a 72 h treatment, cellular viability was assessed using CellTiter 96 ® Aqueous One Solution Cell Proliferation Assay reagent (Promega) according to the manufacturer's instructions. Values were normalized to the DMSO control.

PNT1B-ERG cells [1] = assay: Real time growth assay (Incucyte confluence); format: cell-based, human; conditions: 1, 5 or 15 µM; 168 h
Experimental: www.impactjournals.com/oncotarget/ Oncotarget Supplementary Materials
Discovery and characterization of small molecules targeting the DNA-binding ETS domain of ERG in prostate cancer […]
samples where less saturation of MS data is expected. This […]
and gives reasonable estimates when the use of MS […]
sulfoxide (DMSO) were diluted 1,000× into methanol
The (Gibco), then underwent APC BrdU Flow Kit protocol
Cells were analysed on a FACSCanto™
Data was analyzed using FlowJo
Eppendorf tubes. Saturated PBS samples were further software (TreeStar, USA). Biological replicates were diluted with an equal volume of PBS. Aliquots of these analysed statistically by Two-Way ANOVA. […]
the dark. Aliquots taken at later time points were vortex mixed for 1 h prior to sampling. MeOH and diluted PBS Proliferation/cell viability assay […]
were extracted with two volumes acetonitrile (ACN) and centrifuged at 20,000 g for 5 min.
After 24 h, plates were treated with vehicle control, […]
and a Quattro Premier (Waters).
2points/sec were collected with the PDA. The sampler expression datasets from PCa patients […]
represent the mean ± SEM of triplicate experiments. […]
post hoc test. […] The G0–G1 phase
Growth assay of PNT1B-ERG cells

PNT1B-ERG cells [2] = assay: MTS cell viability assay, PNT1B-ERG; format: cell-based, human; conditions: 72 h
Experimental: as §1

PNT1B-ERG cells [3] = assay: Real time cell migration (xCELLigence), PNT1B cells; format: cell-based, human; conditions: 5 μM
Experimental: Cell migration was monitored using CIM-16 migration plates via the xCELLigence platform (ACEA). FBS-supplemented media (160 μL) was added to the lower chamber of the plate and incubated at RT for 30 min. The upper chamber was then mounted and 30 μL of serum free media (SFM) was added to each well and left to equilibrate in the incubator for 1 h at 37°C. After the incubation, a background reading was taken for each well. […] Real time readings of cell index values were recorded initially every 5 min until the end of the experiment (48 hr).

VCaP cells [4] = test system: VCaP cells
From the text: (media), and phosphate buffered saline (PBS) and vortex Cells were detached by treatment with Accutase
Saturated PBS samples were further software (TreeStar, USA). […] Aliquots of these analysed statistically by Two-Way ANOVA.

zebrafish embryos = assay: Compound toxicity to zebrafish embryos; format: in vivo
VCaP cells [5] = assay: MTS cell viability assay, VCaP; format: cell-based, human; conditions: 72 h
Experimental: as §1

PNT1B-ERG or VCaP cells = assay: Zebrafish yolk sac dissemination (xenograft metastasis) assay; format: in vivo; conditions: 1 and 10 μM in water; 5 days; untreated 65 to 70%
Experimental: Research was carried in accordance with protocols compliant to the Canadian Council on Animal Care and with the approval of the Animal Care Committee at the University of British Columbia. The wildtype zebrafish strain was maintained in aquaria according to standard protocols. Embryos were generated by natural pair-wise matings and raised at 28.5°C on a 14 h light/10 h dark cycle in a 100 mm^2 petri dish containing aquarium water. Phenylthiourea (0.2 mM PTU, Sigma) was added to the embryos at 10 h post-fertilization (hpf) to prevent pigment formation. Yolk sac dissemination assay. PCa cell lines were fluorescently labelled the day before microinjection with 1.5 μM of CellTracker CM-Dil dye (Life Technologies) as per manufacturer's instructions. Wild-type embryos were dechorionated at 2 dpf. Following anaesthetization with tricane, approximately 50–70 cancer cells were microinjected into the yolk sac. Embryos were then transferred to 100 mm^2 plates that contained aquaria water with added PTU and VPC-18005, YK-4-279 or DMSO control. Embryos were visually assessed for presence of xenograph. […] Embryos were kept at 35°C for the duration of the experiment. Approximately, 50 fish were injected per cell line and metastasis was determined on Day 4 and 5 by observation using the Zeiss Axio Observer microscope (5X objective) controlled with Zen 2012 software. […]

Row | Compound | pKi (ERG-ETS/DNA complex; 4 nM ERG-ETS domain, 1 nM dsDNA, read-out: KI, disruption of ERG-ETS/DNA complex formation) | Disruption of recombinant ERG-ETS/DNA complex formation (ERG-ETS/DNA complex) | Rate of spheroid invasion between day 2 and 6 (PNT1B-ERG spheroids) | Effect on cell viability (MTS), PC3 (PC3 cells; 0.2–25 μM) | Effect on proliferation / cell growth (real time cell analysis) (PNT1B-ERG cells [1]) | Effect on cell viability (MTS), PNT1B-ERG (PNT1B-ERG cells [2]; 0.2–25 μM) | Rate of migration of PNT1B-ERG cells (PNT1B-ERG cells [3]; 24 h exposure, relative to vehicle) | Impact on cell cycle distribution (VCaP cells [4]) | Concentration at which embryos remained viable (zebrafish embryos; 72 h) | Effect on cell viability (MTS), VCaP (VCaP cells [5]; 0.2–25 μM) | Percentage of fish with PNT1B-ERG or VCaP dissemination (PNT1B-ERG or VCaP cells) | Doses with inhibition of cell viability (MTS), PC3 (PC3 cells) [µM] | Doses with inhibition of cell viability (MTS), PNT1B-ERG (PNT1B-ERG cells [2]) [µM] | Cytotoxicity in migration assay (PNT1B-ERG cells [3]; PNT1B-MOCK and PNT1B-ERG cells) | G0–G1 phase population (VCaP cells [4]; 5 and 10 μM) | Concentrations at which embryos exhibited toxicity (zebrafish embryos) [µM] | Doses with inhibition of cell viability (MTS), VCaP (VCaP cells [5]) [µM]
1 | CC(C)c1ccc(C=N/N=C2\NC(=O)[C@@H](CC(=O)O)S2)cc1 (stereo in doubt) [VPC-18005, 2-((Z)-2-(((Z)-4-isopropylbenzylidene)hydrazono)-4-oxothiazolidin-5-yl)acetic acid] | ~3.60 | dose-dependent disruption | significantly reduced | did not decrease viability | did not suppress proliferation or induce cell death | did not decrease viability | significantly reduced | did not impact cell cycle distribution | up to 50 μM | did not decrease viability | 20–30% | – | – | – | – | – | –
2 | COc1ccc(C(=O)CC2(O)C(=O)Nc3c(Cl)ccc(Cl)c32)cc1 (stereo not drawn) [YK-4-279, reference compound] | – | did not disrupt binding | significantly reduced | – | dose-dependent effect | – | – | – | – | – | 40–60% | ≥ 5 | ≥ 5 | cytotoxicity in both cell lines | concomitantly reduced | > 10 | ≥ 5
